Data on three molecules can be found in US10537547B2, “Compositions favoring wound repair” (UNIVERSITÉ LAVAL, priority 2015, dated 2020).

Molecules are shown by their SMILES.

Assay [1] deals with tissue-engineered human corneas. Kind of assay: Wound closure of punch-wounded tissue-engineered human corneas. The assay is classed as cell-based. Conditions: 8-mm punch wound; compounds in culture medium at 2x reported IC50 (GDC-0068 36 nM; C646 800 nM; SC79 10 μM along with C646 800 nM); monitored over 4 days; n=4. The protocol: FIGS. 5A to 5C illustrate the pharmacological alteration of Akt and CREB on wound closure dynamic. (A) Left panel: Tissue-engineered human corneas (TEC) (four reconstructed corneas per condition) were wounded as in FIG. 2 and then maintained in culture medium supplemented with […] (36 nM, thin line), a pharmacological inhibitor of Akt phosphorylation, and C646 (800 nM, broken line), an inhibitor of CREB phosphorylation. Wounded corneas used as controls were exposed solely to the vehicle (DMSO, thick line). Wound closure was monitored over a 4-day period. Right panel: Measurement of wound surface remaining at each day using the ImageJ64 software (n=4). (B) Left panel: TECs were wounded as in (A) and maintained in culture medium containing C646 (800 nM) along with the AKT agonist SC79 (10 μM) (thin line) or DMSO (broken line). Wound closure was monitored as in (A). Right panel: Measurement of wound surface remaining at each day using the ImageJ64 software (n=4). (C) Composite image showing a complete view of the wounded TECs exposed either to the vehicle (DMSO) or pharmacological compounds (C646, GDC0068 or the combination of C646 and SC79) 4 days following corneal damage (sections were stained with Masson's trichrome; cells are pink and collagen is bluish). The wound margin created by the biopsy punch is indicated.
The tissue-engineered, two-layers 3D human corneas that have been used as a biomaterial were produced following the self-assembly approach (see FIG. 1). Briefly, corneal fibroblasts were seeded and cultured in fibroblast growth medium supplemented with 50 μg/ml ascorbic acid (Sigma, Oakville, Ont., Canada) for 35 days. Ascorbic acid allows fibroblasts to secrete and lay down their own ECM. After peeling from the flasks, two tissue sheets were superimposed to form a reconstructed stroma and were cultured for another week so that they could adhere to each other. […]
The wound healing of in vitro reconstructed cornea was studied. […] Wound healing was monitored daily with microphotographs. […]

The test system of a further assay is mouse model of stroke. Conditions: cited from earlier work.
A further assay has as its system Akt. Particulars: cell based assays; cited from earlier work.
Another assay relates to rabbit corneas. Description: Wound closure of rabbit corneas wounded with ethanol or N-heptanol combined with mechanical debridement. The assay is classed as in vivo, New Zealand white rabbits. Particulars: C646 10 μM applied 3-times/day to the eye, vs DMSO, n=4. The text has this:
FIGS. 6A and 6B illustrate the impact of C646 on rabbit corneas wounded with either ethanol or N-heptanol combined to mechanical debridement. Rabbit corneas were wounded with ethanol (70%) or N-heptanol (100%) and mechanically debrided with a scalpel blade (crescent type). The rabbits were then divided into two groups: control corneas treated with DMSO or corneas treated with C646 (10 μm). n=4 for each conditions tested. (A) Fluorescein staining of corneas surgically wounded using either ethanol or N-heptanol combined with debridement using a crescent blade and treated with 10 μM C646. Wounded eyes were photographed using a slit lamp. (B) Graph representation of the remaining wounded corneal area (%) for each condition used in (A).
FIGS. 7A and 7B illustrate the impact of C646+SC79 on wounded rabbit corneas combined to mechanical debridement. Rabbit corneas were wounded with ethanol (70%) and mechanically debrided with a scalpel blade (crescent type). The rabbits were then divided into five groups: control corneas treated with DMSO, corneas treated with C646 (1 μM) and SC-79 (1 μM), corneas treated with C646 (1 μM) and SC-79 (10 μM), corneas treated with C646 (1 μM) and SC-79 (100 μM) and corneas treated with C646 (1 μm) and SC-79 (1 mM). n=4 for DMSO and n=5 for each remaining conditions tested. […]

As for `CC(C)NC[C@@H](C(=O)N1CCN(c2ncnc3c2[C@H](C)C[C@H]3O)CC1)c1ccc(Cl)cc1` [GDC-0068], the “wound closure when compared to control (DMSO)” value in assay [1] is recorded as “delayed wound closure”.
For `CCOC(=O)C1=C(N)Oc2ccc(Cl)cc2C1C(C#N)C(=O)OCC` (stereo not shown) [SC-79, Ethyl-2-amino-6-chloro-4-(1-cyano-2-ethoxy-2-oxoethyl)-4H-chromene-3-carboxylate], the neuronal death result in the assay with mouse model of stroke is recorded as “prevents neuronal death”. Also, in assay [1], the “wound closure when compared to control (DMSO)” value is reported as “accelerated wound closure”. The “cytosolic Akt signaling” value in the assay with Akt is recorded as “induces cytosolic Akt signaling”.
Turning to `CC1=NN(c2ccc(C(=O)O)cc2)C(=O)C1=Cc1ccc(-c2cc(C)c(C)cc2[N+](=O)[O-])o1` [C646, 4-[4-[[5-(4,5-Dimethyl-2-nitrophenyl)-2-furanyl]methylene]-4,5-dihydro-3-methyl-5-oxo-1H-pyrazol-1-yl]benzoic acid], the wound closing time result with rabbit corneas (ethanol (70%) injury combined with mechanical debridement) was “clear reduction in the wound closing time”. The wound closure result with rabbit corneas (n-heptanol (100%) injury combined with mechanical debridement) was “no significant impact on wound closure”. Also, the “wound closure when compared to control (DMSO)” value in assay [1] is “accelerated wound closure”.
